# Data taken from ChEMBL document CHEMBL4118205, “Design, synthesis and biological evaluation of artemisinin derivatives containing fluorine atoms as anticancer agents” (Bioorg Med Chem Lett, 2018).
# pIC50: −log10 of the molar value. Calls of active or inactive are those of the source. The calls are words filed in the database; no cut-off is given here.
# Columns and labels:
# [1] = tested on: MCF7; test: Cell cycle arrest in human MCF7 cells assessed as accumulation at G1 phase at 1 uM after 48 hrs by propidium iodide staining based flow cytometry (reference value: 45.21%); assay type: functional
# [2] = tested on: MCF7; test: Induction of apoptosis in human MCF7 cells assessed as early apoptotic cells at 10 uM after 48 hrs by Annexin-V FITC/propidium iodide staining based flow cytometry (reference value: 0.50%); assay type: functional
# [3] = tested on: MCF7; test: Cell cycle arrest in human MCF7 cells assessed as accumulation at G1 phase at 0.5 uM after 48 hrs by propidium iodide staining based flow cytometry (reference value: 45.21%); assay type: functional
# [4] = tested on: MCF7; test: Induction of apoptosis in human MCF7 cells assessed as early apoptotic cells at 20 uM after 48 hrs by Annexin-V FITC/propidium iodide staining based flow cytometry (reference value: 0.50%); assay type: functional
# [5] = tested on: MCF7; test: Cell cycle arrest in human MCF7 cells assessed as accumulation at G1 phase at 2.5 uM after 48 hrs by propidium iodide staining based flow cytometry (reference value: 45.21%); assay type: functional
# [6] = tested on: MCF7; test: Induction of apoptosis in human MCF7 cells assessed as necrotic cells at 10 uM after 48 hrs by Annexin-V FITC/propidium iodide staining based flow cytometry (reference value: 4.69%); assay type: functional
# [7] = tested on: MCF7; test: Induction of apoptosis in human MCF7 cells assessed as viable cells at 5 uM after 48 hrs by Annexin-V FITC/propidium iodide staining based flow cytometry (reference value: 88.59%); assay type: functional; conditions: MCF7, 48 h, read-out: Activity
# [8] = tested on: MCF7; test: Induction of apoptosis in human MCF7 cells assessed as necrotic cells at 1 uM after 48 hrs by Annexin-V FITC/propidium iodide staining based flow cytometry (reference value: 4.69%); assay type: functional
# [9] = tested on: MCF7; test: Induction of apoptosis in human MCF7 cells assessed as early apoptotic cells at 5 uM after 48 hrs by Annexin-V FITC/propidium iodide staining based flow cytometry (reference value: 0.50%); assay type: functional
# [10] = tested on: MCF7; test: Cell cycle arrest in human MCF7 cells assessed as accumulation at S phase at 5 uM after 48 hrs by propidium iodide staining based flow cytometry (reference value: 41.55%); assay type: functional
# [11] = tested on: A549; test: Cytotoxicity against human A549 cells assessed as reduction in cell viability after 72 hrs by MTT assay; assay type: functional, cell-based; conditions: A549, 72 h
# [12] = tested on: MCF7; test: Induction of apoptosis in human MCF7 cells assessed as viable cells at 2.5 uM after 48 hrs by Annexin-V FITC/propidium iodide staining based flow cytometry (reference value: 88.59%); assay type: functional; conditions: MCF7, 48 h, read-out: Activity
# [13] = tested on: MCF7; test: Induction of apoptosis in human MCF7 cells assessed as necrotic cells at 2.5 uM after 48 hrs by Annexin-V FITC/propidium iodide staining based flow cytometry (reference value: 4.69%); assay type: functional
# [14] = tested on: MCF7; test: Induction of apoptosis in human MCF7 cells assessed as late apoptotic cells at 5 uM after 48 hrs by Annexin-V FITC/propidium iodide staining based flow cytometry (reference value: 6.22%); assay type: functional
# [15] = tested on: MDA-MB-231; test: Cytotoxicity against human MDA-MB-231 cells assessed as reduction in cell viability after 72 hrs by MTT assay; assay type: functional, cell-based; conditions: MDA-MB-231, 72 h
# [16] = tested on: MCF7; test: Cell cycle arrest in human MCF7 cells assessed as accumulation at G2 phase at 1 uM after 48 hrs by propidium iodide staining based flow cytometry (reference value: 13.24%); assay type: functional
# [17] = tested on: MCF7; test: Induction of apoptosis in human MCF7 cells assessed as necrotic cells at 5 uM after 48 hrs by Annexin-V FITC/propidium iodide staining based flow cytometry (reference value: 4.69%); assay type: functional
# [18] = tested on: MCF7; test: Cell cycle arrest in human MCF7 cells assessed as accumulation at S phase at 0.5 uM after 48 hrs by propidium iodide staining based flow cytometry (reference value: 41.55%); assay type: functional
# [19] = tested on: MCF7; test: Induction of apoptosis in human MCF7 cells assessed as viable cells at 20 uM after 48 hrs by Annexin-V FITC/propidium iodide staining based flow cytometry (reference value: 88.59%); assay type: functional; conditions: MCF7, 48 h, read-out: Activity
# [20] = tested on: A-375; test: Cytotoxicity against human A375 cells assessed as reduction in cell viability after 72 hrs by MTT assay; assay type: functional, cell-based; conditions: A-375, 72 h
# [21] = tested on: MCF7; test: Induction of apoptosis in human MCF7 cells assessed as early apoptotic cells at 1 uM after 48 hrs by Annexin-V FITC/propidium iodide staining based flow cytometry (reference value: 0.50%); assay type: functional
# [22] = tested on: L02; test: Cytotoxicity against human L02 cells assessed as reduction in cell viability after 72 hrs by MTT assay; assay type: functional, cell-based; conditions: L02, 72 h
# [23] = tested on: MCF7; test: Induction of apoptosis in human MCF7 cells assessed as early apoptotic cells at 2.5 uM after 48 hrs by Annexin-V FITC/propidium iodide staining based flow cytometry (reference value: 0.50%); assay type: functional
# [24] = tested on: MCF7; test: Cell cycle arrest in human MCF7 cells assessed as accumulation at S phase at 1 uM after 48 hrs by propidium iodide staining based flow cytometry (reference value: 41.55%); assay type: functional
# [25] = tested on: MCF7; test: Induction of apoptosis in human MCF7 cells assessed as late apoptotic cells at 10 uM after 48 hrs by Annexin-V FITC/propidium iodide staining based flow cytometry (reference value: 6.22%); assay type: functional
# [26] = tested on: MCF7; test: Induction of apoptosis in human MCF7 cells assessed as viable cells at 1 uM after 48 hrs by Annexin-V FITC/propidium iodide staining based flow cytometry (reference value: 88.59%); assay type: functional; conditions: MCF7, 48 h, read-out: Activity
# [27] = tested on: MCF7; test: Cell cycle arrest in human MCF7 cells assessed as accumulation at G1 phase after 48 hrs by propidium iodide staining based flow cytometry; assay type: functional
# [28] = tested on: SH-SY5Y; test: Cytotoxicity against human SH-SY5Y cells assessed as reduction in cell viability after 72 hrs by MTT assay; assay type: functional, cell-based
# [29] = tested on: MCF7; test: Induction of apoptosis in human MCF7 cells assessed as late apoptotic cells at 2.5 uM after 48 hrs by Annexin-V FITC/propidium iodide staining based flow cytometry (reference value: 6.22%); assay type: functional
# [30] = tested on: MCF7; test: Cell cycle arrest in human MCF7 cells assessed as accumulation at G1 phase at 10 uM after 48 hrs by propidium iodide staining based flow cytometry (reference value: 45.21%); assay type: functional
# [31] = tested on: MCF7; test: Cell cycle arrest in human MCF7 cells assessed as accumulation at G2 phase at 5 uM after 48 hrs by propidium iodide staining based flow cytometry (reference value: 13.24%); assay type: functional
# [32] = tested on: MCF7; test: Cell cycle arrest in human MCF7 cells assessed as accumulation at S phase at 2.5 uM after 48 hrs by propidium iodide staining based flow cytometry (reference value: 41.55%); assay type: functional
# [33] = tested on: MCF7; test: Induction of apoptosis in human MCF7 cells assessed as late apoptotic cells at 1 uM after 48 hrs by Annexin-V FITC/propidium iodide staining based flow cytometry (reference value: 6.22%); assay type: functional
# [34] = tested on: MCF7; test: Induction of apoptosis in human MCF7 cells assessed as morphological alteration up to 20 uM after 48 hrs by Hoechst 33258 staining based fluorescence microscopic method; assay type: functional, cell-based
# [35] = tested on: MCF7; test: Cell cycle arrest in human MCF7 cells assessed as accumulation at G2 phase at 10 uM after 48 hrs by propidium iodide staining based flow cytometry (reference value: 13.24%); assay type: functional
# [36] = tested on: MCF7; test: Cell cycle arrest in human MCF7 cells assessed as accumulation at G2 phase at 0.5 uM after 48 hrs by propidium iodide staining based flow cytometry (reference value: 13.24%); assay type: functional
smiles,measurement,setting,value
C[C@H]1[C@H](N2CCN(C(=O)Nc3ccc(OC(F)(F)F)cc3)CC2)O[C@@H]2O[C@@]3(C)CC[C@H]4[C@H](C)CC[C@@H]1[C@@]24OO3,Activity,[1],56.57%
same,Activity,[2],0.8%
same,Activity,[3],47.95%
same,Activity,[4],4.78%
same,Activity,[5],64.46%
same,Activity,[6],17.18%
same,viability at 5 µM,[7],43.5%
same,Activity,[8],8.1%
same,Activity,[9],1.38%
same,Activity,[10],15.49%
same,pIC50,[11],4.70
same,viability at 2.5 µM,[12],59.5%
same,Activity,[13],20.85%
same,Activity,[14],33.62%
same,pIC50,[15],5.08
same,Activity,[16],10.09%
same,Activity,[17],21.51%
same,Activity,[18],39.72%
same,viability at 20 µM,[19],16.2%
same,pIC50,[20],5.47
same,Activity,[21],0.48%
same,pIC50,[22],5.17
same,Activity,[23],0.66%
same,Activity,[24],33.33%
same,Activity,[25],53.36%
same,viability at 1 µM,[26],84.4%
same,Activity,[27],Dose-dependent effect
same,pIC50,[28],5.44
same,Activity,[29],19.17%
same,Activity,[30],83.5%
same,Activity,[31],7.83%
same,Activity,[32],26.36%
same,Activity,[33],7.01%
same,Activity,[34],Active
same,Activity,[35],7.3%
same,Activity,[36],12.33%
